According to patent US20040002526A1, “Phospholipase D inhibitors and uses thereof” (Cell Therapeutics, Inc., priority 2002, published 2004):

Each molecule was assayed against T1, PLD (phospholipase D) (assay: In vitro assay of PLD activity ([3H]-choline release from labelled PC)). Settings: Table 1, monocyclic thiazolidinones of Formula I; PLD isoform not stated; read-out: IC50.
T1 construct: fused on or other part: N-terminal polyhistidine tag (pFastBac HTc) on either enzyme
Type: biochemical, human
Experimental: Recombinant PLD1 and PLD2—Human PLD1 and PLD2 were isolated from Sf9 insect cells that had been infected with recombinant baculovirus vector, pFastBac™HTc vector (Life Technologies, Gaithersburg, Md.), containing PLD1 or PLD2 cDNAs.
PLD1 activity was assayed by measuring the generation of [^3H]-choline from [choline-methyl^3H](16:0, 16:0)PC.
The assay procedure for PLD2 was similar to that for PLD1, with the exception that arf1, PKC-α, and GTPγS were omitted from the reaction mixture. After addition of enzymes, the reactions were incubated for 1 hour at room temperature. Twenty microliters of 12% trichloroacetic acid (TCA) then were added to each sample, to stop the reaction and to precipitate the unreacted [choline-methyl^3H](16:0, 16:0)PC. Thereafter, the samples were passed through 0.65 μm Millipore 96 well filter plates to removed the excess [choline-methyl^3H](16:0, 16:0)PC. For each sample the filtrate (50 μl), which contained the [^3H]-choline released by PLD cleavage of PC, was analyzed using a TopCount™ Liquid Scintillation Counter, a product of Packard (Meriden, Conn.).

IC50 [µM]	SMILES
6	Cc1ccc(CN2C(=O)/C(=C/c3ccc(-c4ccc(S(N)(=O)=O)cc4)o3)SC2=S)cc1 [Compound 38, 4-{5-[3-(4-methyl-benzyl)-4-oxo-2-thioxo-thiazolidin-5-ylidenemethyl]-furan-2-yl}-benzenesulfonamide]
4	N#Cc1ccc(-c2ccc(/C=C3\SC(=S)N(Cc4cccnc4)C3=O)o2)cc1 [Compound 39, 4-[5-(4-oxo-3-pyridin-3-ylmethyl-2-thioxo-thiazolidin-5-ylidenemethyl)-furan-2-yl]-benzonitrile]
8	CN(C)c1ccc(/C=C/C=C2\SC(=S)N(c3ccc(C(=O)O)cc3)C2=O)cc1 [Compound 40, 4-{5-[3-(4-dimethylamino-phenyl)-allylidene]-4-oxo-2-thioxo-thiazolidin-3-yl}-benzoic acid]
2	O=C(O)c1ccc(N2C(=O)/C(=C/c3cc4ccccc4o3)SC2=S)cc1 [Compound 41, 4-(5-benzofuran-2-ylmethylene-4-oxo-2-thioxo-thiazolidin-3-yl)-benzoic acid]

Same assay, conditions: Table 2, bicyclic thiazolidinones of Formula II; PLD isoform not stated; read-out: IC50

IC50 [µM]	SMILES
4.5	CCOC(=O)C1=C(C)N=c2s/c(=C\c3ccc(-c4ccc(C(=O)O)cc4)o3)c(=O)n2C1c1ccc(OC)c(OC)c1 (stereo not shown) [Compound 42, 2-[5-(4-Carboxy-phenyl)-furan-2-ylmethylene]-5-(3,4-dimethoxy-phenyl)-7-methyl-3-oxo-2,3-dihydro-5H-thiazolo[3,2-a]pyrimidine-6-carboxylic acid ethyl ester]
2.7	CCOC(=O)C1=C(C)N=c2s/c(=C\c3ccc(-c4ccc(C(=O)O)cc4)o3)c(=O)n2C1c1ccc(N(C)C)cc1 (stereo not shown) [Compound 43, 2-[5-(4-Carboxy-phenyl)-furan-2-ylmethylene]-5-(4-dimethylamino-phenyl)-7-methyl-3-oxo-2,3-dihydro-5H-thiazolo[3,2-a]pyrimidine-6-carboxylic acid ethyl ester]
2.3	CCOC(=O)C1=C(C)N=c2s/c(=C\c3ccc(-c4ccc(C(=O)O)cc4)o3)c(=O)n2C1c1ccc2c(c1)OCO2 (stereo not shown) [Compound 44, 5-Benzo[1,3]dioxol-5-yl-2-[5-(4-carboxy-phenyl)-furan-2-ylmethylene]-7-methyl-3-oxo-2,3-dihydro-5H-thiazolo[3,2-a]pyrimidine-6-carboxylic acid ethyl ester]
1.9	CCOC(=O)C1=C(C)N=c2s/c(=C\c3ccc(-c4ccc(Cl)c(C(=O)O)c4)o3)c(=O)n2C1c1ccc(N(C)C)cc1 (stereo not shown) [Compound 45, 2-[5-(3-Carboxy-4-chloro-phenyl)-furan-2-ylmethylene]-5-(4-dimethylamino-phenyl)-7-methyl-3-oxo-2,3-dihydro-5H-thiazolo[3,2-a]pyrimidine-6-carboxylic acid ethyl ester]
4.3	CCOC(=O)C1=C(C)N=c2s/c(=C\c3ccc(-c4cccc(C(=O)O)c4)o3)c(=O)n2C1c1ccccc1 (stereo not shown) [Compound 46, 2-[5-(3-Carboxy-phenyl)-furan-2-ylmethylene]-7-methyl-3-oxo-5-phenyl-2,3-dihydro-5H-thiazolo[3,2-a]pyrimidine-6-carboxylic acid ethyl ester]
2	CCOC(=O)C1=C(C)N=c2s/c(=C\c3ccc(-c4cccc(C(=O)O)c4)o3)c(=O)n2C1c1ccc(OC)cc1 (stereo not shown) [Compound 47, 2-[5-(3-Carboxy-phenyl)-furan-2-ylmethylene]-5-(4-methoxy-phenyl)-7-methyl-3-oxo-2,3-dihydro-5H-thiazolo[3,2-a]pyrimidine-6-carboxylic acid ethyl ester]
3.5	CCOC(=O)C1=C(C)N=c2s/c(=C\c3ccc(-c4ccc(C(=O)O)cc4)o3)c(=O)n2C1c1ccc(C)cc1 (stereo not shown) [Compound 48]
2.8	CCOC(=O)C1=C(C)N=c2s/c(=C\c3ccc(-c4cccc(C(=O)O)c4)o3)c(=O)n2C1c1ccc(C)cc1 (stereo not shown) [Compound 49, 2-[5-(3-Carboxy-phenyl)-furan-2-ylmethylene]-7-methyl-3-oxo-5-p-tolyl-2,3-dihydro-5H-thiazolo[3,2-a]pyrimidine-6-carboxylic acid ethyl ester]
3.4	CCOC(=O)C1=C(C)N=c2s/c(=C\c3ccc(-c4ccc(C(=O)O)cc4)o3)c(=O)n2C1c1ccc(Cl)cc1 (stereo not shown) [Compound 50, 2-[5-(4-Carboxy-phenyl)-furan-2-ylmethylene]-5-(4-chloro-phenyl)-7-methyl-3-oxo-2,3-dihydro-5H-thiazolo[3,2-a]pyrimidine-6-carboxylic acid ethyl ester]
2.7	CCOC(=O)C1=C(C)N=c2s/c(=C\c3ccc(-c4cccc(C(=O)O)c4)o3)c(=O)n2C1c1ccc2c(c1)OCO2 (stereo not shown) [Compound 51, 5-Benzo[1,3]dioxol-5-yl-2-[5-(3-carboxy-phenyl)-furan-2-ylmethylene]-7-methyl-3-oxo-2,3-dihydro-5H-thiazolo[3,2-a]pyrimidine-6-carboxylic acid ethyl ester]
4	CCOC(=O)C1=C(C)N=c2s/c(=C\c3ccc(-c4cccc(C(=O)O)c4)o3)c(=O)n2C1c1ccccc1Cl (stereo not shown) [Compound 52, 2-[5-(3-Carboxy-phenyl)-furan-2-ylmethylene]-5-(2-chloro-phenyl)-7-methyl-3-oxo-2,3-dihydro-5H-thiazolo[3,2-a]pyrimidine-6-carboxylic acid ethyl ester]
0.7	CCOC(=O)C1=C(C)N=c2s/c(=C\c3ccc(-c4cccc(C(=O)O)c4)o3)c(=O)n2C1c1ccc(N(C)C)cc1 (stereo not shown) [Compound 55, 2-[5-(3-Carboxy-phenyl)-furan-2-ylmethylene]-5-(4-dimethylamino-phenyl)-7-methyl-3-oxo-2,3-dihydro-5H-thiazolo[3,2-a]pyrimidine-6-carboxylic acid ethyl ester]
2.6	CCOC(=O)C1=C(C)N=c2s/c(=C/c3ccc(-c4ccc(Cl)c(C(=O)O)c4)o3)c(=O)n2C1c1ccccc1OC (stereo not shown) [Compound 56, 2-[5-(3-Carboxy-4-chloro-phenyl)-furan-2-ylmethylene]-5-(2-methoxy-phenyl)-7-methyl-3-oxo-2,3-dihydro-5H-thiazolo[3,2-a]pyrimidine-6-carboxylic acid ethyl ester]
3.7	CCOC(=O)C1=C(C)N=c2s/c(=C\c3ccc(-c4ccc(C(=O)O)cc4)o3)c(=O)n2C1c1c(OC)ccc2ccccc12 (stereo not shown) [Compound 57, 2-[5-(4-Carboxy-phenyl)-furan-2-ylmethylene]-5-(2-methoxy-naphthalen-1-yl)-7-methyl-3-oxo-2,3-dihydro-5H-thiazolo[3,2-a]pyrimidine-6-carboxylic acid ethyl ester]
4	CCOC(=O)C1=C(C)N=c2s/c(=C\c3ccc(-c4ccccc4C(=O)O)o3)c(=O)n2C1c1ccc(SC)cc1 (stereo not shown) [Compound 58, 2-[5-(2-Carboxy-phenyl)-furan-2-ylmethylene]-7-methyl-5-(4-methylsulfanyl-phenyl)-3-oxo-2,3-dihydro-5H-thiazolo[3,2-a]pyrimidine-6-carboxylic acid ethyl ester]
4.1	CCOC(=O)C1=C(C)N=c2s/c(=C/c3ccc(-c4cccc(C(=O)O)c4)o3)c(=O)n2C1c1ccccc1OC (stereo not shown) [Compound 59, 2-[5-(3-Carboxy-phenyl)-furan-2-ylmethylene]-5-(2-methoxy-phenyl)-7-methyl-3-oxo-2,3-dihydro-5H-thiazolo[3,2-a]pyrimidine-6-carboxylic acid ethyl ester]

Same assay, conditions: Table 3, tricyclic thiazolidinones of Formula II; PLD isoform not stated; read-out: IC50

IC50 [µM]	SMILES
3.6	Cc1cc2nc3s/c(=C\c4ccc(-c5ccc(O)c(C(=O)O)c5)o4)c(=O)n3c2cc1C [Compound 60, 5-[5-(6,7-Dimethyl-3-oxo-benzo[4,5]imidazo[2,1-b]thiazol-2-ylidenemethyl)-furan-2-yl]-2-hydroxy-benzoic acid]
3.4	Cc1cc2nc3s/c(=C/c4ccc(-c5cccc(C(=O)O)c5)o4)c(=O)n3c2cc1C [Compound 61, 3-[5-(6,7-Dimethyl-3-oxo-benzo[4,5]imidazo[2,1-b]thiazol-2-ylidenemethyl)-furan-2-yl]-benzoic acid]
